Patent publication US10912767B2, “Anthracycline prodrugs and methods of making and using the same” (THE REGENTS OF THE UNIVERSITY OF COLORADO, priority 2015, dated 2021)
Like-named read-outs stand apart in the source and are kept apart here. Non-standard residues stand in square brackets, D forms with d. Residues, ends and D or L forms follow the SMILES beside them. *: point of attachment. X1 = COc1cc(C(C)OC(=O)N2CO[C@@H]3[C@H](C)OC(OC4CC(O)(C(=O)CO)Cc5c(O)c6c(c(O)c54)C(=O)c4c(OC)cccc4C6=O)C[C@@H]32)c([N+](=O)[O-])cc1OCC(=O)NCCOCCOCCOCCn1nnc2c1-c1ccccc1CN(C(=O)CCNC(=O)CCN1C(=O)CC(*)C1=O)c1ccccc1-2; Mpa = O=C(O)CCS

What was measured:
[1] = Photolysis timecourses, near UV blacklight 350 nm, HPLC; assay type: physicochemical; settings: for k in ACN: H2O, relative rate constant for photocleavage / k in PBS, relative rate constant for photocleavage: 100 μM, near UV 350 nm; for k in ACN: H2O, relative rate constant for photocleavage / k in ACN: H2O, fold over photodoxazolidine: 1:1 acetonitrile:water; for photochemical reaction, fold faster than photodoxazolidine: both solvents
Description: (§1) In order to investigate the photolysis of the drugs in a system amenable to cell culture use, a custom UV irradiation apparatus was constructed, consisting of 3 small blacklight fluorescent bulbs (Southern New England Ultraviolet Co., λmax=350 nm) set between two ring stands and suspended at a height of 11.5 cm. The bulbs' housing was reflective aluminum so as to direct as much UV irradiation as possible downward toward the plate. Upon installation in sterile cell culture hood, the power of the system was measured at approximately 6-7 mW using a Scientech laser power meter. Prior to experimentation, the hood and irradiation apparatus was sterilized with 254 nm germicidal UV irradiation overnight. Using this setup, 100 μM of 4,5-dimethoxy-2-nitrobenyl alcohol (DMNA), photodoxazolidine R═H, and glucose-PEG-photodoxazoldine were irradiated in individual wells of a 24-well plate. Initially, 50 μL of a DMSO stock was diluted with 950 μL of PBS and aliquots of 50 μL were removed at various times (0-180 min), mixing by pipetting each time. The timepoints were analyzed by HPLC (method 2) and plotted as fractional conversion versus time. […] Therefore, a second experiment was performed in which the PBS was replaced with 1:1 acetonitrile:water. With this system of 5% DMSO/47.5% acetonitrile/47.5% water, no visible precipitation was produced over the course of the reaction.
The measured quantum yield of 0.002 for photodoxazolidine R═H (above) was lower than expected, which raised the possibility that the presence of the anthraquinone ring complex in the prodrugs was inhibiting photocleavage by quenching the activated state. To test whether this, the irradiation kinetics of DMNA (4, 5-dimethoxy-2-nitrobenzyl alcohol) was compared against photodoxazolidine R═H, which contains the DMNA unit as the photoactivating group. Additionally, glucose-PEG-photodoxazoldine was included for comparison; a synthetic precursor to this compound, azido-PEG-photodoxazolidine, is suspected of having a quantum yield of 0.01-0.02, which is 5-10-fold larger than photodoxazolidine. Irradiation was performed in 24-well cell culture dishes using the cell culture irradiation system described above with the soft-glass high-pass filter. […] In both cases, photodoxazolidine was the slowest to produce dox from the irradiation. In line with its quantum yield, glucose-PEG-photodoxazolidine reacted 4-5-fold faster than photodoxazolidine. However, DMNA was by far the fastest to undergo photochemistry in this system, converting to product approximately 30-fold faster than photodoxazolidine.

[2] = tested on: MDA-MB-231 human breast cancer cells; experiment: cells; assay type: cell-based
Experimental: The breast carcinoma line MDA-MB-231 was cultured in Minimum Essential Media (MEM) supplemented with 10% of fetal bovine serum (FBS), 100 units/mL of penicillin and 100 μg/mL of streptomycin, and 1 mM of sodium pyruvate. The cells were incubated at 37° C. in an atmosphere of 95% air and 5% CO2.
The cells were seeded to 96-well plates at a density of 1000 cells/well and allowed to adhere overnight. The prodrugs with various concentrations in MEM were added and the cells were incubated at 37° C. for 24 h. After the media was removed, the cells were washed with PBS two times. The cells in PBS (50 μL) were irradiated for 15 min, followed by incubating at room temperature for 30 min. The PBS was replaced with fresh media and the cells were grown until the no-drug control reached 80% confluency, or 5 days. Cell density was measured by crystal violet staining.
The membrane permeability of the photoactivated prodrugs and their cellular uptake by MDA-MB-231 human breast cancer cells were each monitored by fluorescence microscopy. After the cells were grown with the prodrugs for 24 h, they were washed with PBS two times to remove the prodrugs that remained outside of the cells. The cellular uptake of 10 μM glucose-photodoxazolidine and glucose-PEG-photodoxazolidine was monitored with the fluorescence of the anthraquinone fluorophore. The prodrugs were then activated inside of the cells by black lamp UV irradiation (maximum intensity at 350 nm) for 15 min. […] This drastic change of cytotoxicity presumably arises from membrane permeability of MARCKS-ED peptide and possibly some phototoxicity from longer irradiation time.

[3] = tested on: MDA-MB-231 breast cancer cells; experiment: Tumor cell growth inhibition, crystal violet (Example 2); assay type: cell-based, human; settings: Homo sapiens, read-out: IC50
Description: as §1
The ovarian carcinoma line NCl/ADR-RES (ADR) was grown in high-glucose Dulbecco's Modified Eagle Medium (DMEM) supplemented with 10% fetal bovine serum (FBS), 200 units/mL of penicillin and 200 μg/mL of streptomycin. The breast carcinoma line MDA-MB-231 was cultured in low-glucose DMEM with the same additives. Both lines were maintained in a humidified incubator with 5% CO2/95% air at 37° C. UV irradiations were performed with the apparatus described above.
Growth inhibition experiments were performed by seeding cells into 96-well plates or 24-well plates at densities of 1000-1500 cells per well or 8000 cells per well, respectively, and allowing the cells to adhere overnight. The media was then replaced with a range of aqueous concentrations of the drug in question and allowed to incubate at 37° C. with the cells for a span of time (Inc1) which ranged from 1 min to 48 hours. Irradiation was performed at room temperature with the plate's lid removed and ranged from 1 to 30 min. In some experiments, the drug solution was removed following Inc1 and irradiated in clean media or PBS. Following irradiation, the cells were placed back into the 37° C. incubator for a second period of incubation (Inc2), which varied between 1 min and 24 h, prior to replacement with fresh media. Plates which received no irradiation but identical treatment otherwise were done in parallel. The cells were then grown until the no-drug control wells reached approximately 80% confluence or 5 days, whichever was shorter. […] The cells were fixed with 5% formalin in PBS, stained with crystal violet, washed with tap water, and air-dried. The stain was resolubilized in 50% isopropyl alcohol, 50% H2O containing 2% (w/v) SDS. The staining density was read on a multiwell plate reader at 588-600 nm. Percentage cell density was calculated relative to the irradiated no-drug control wells, plotted as a function of drug concentration, and fit using non-linear least squared analysis with a variable-slope dose response model in GraphPad Prism 5.0 software.
Although the introduction of a long-pass glass filter between the light source and the plate alleviated this effect to a small extent, a maximum irradiation time of 10 min was settled upon. […] Since a media change at that point would remove the cells as well, the re-adherence of the cell population was accomplished by the addition of a large volume (200 μL) of complete media following Inc2, and overnight incubation. Then, a full media change was done to remove the drug. […]

SMILES: COc1cc(CO)c([N+](=O)[O-])cc1OC [DMNA, 4,5-dimethoxy-2-nitrobenzylalcohol, reference compound]
- k in ACN: H2O, relative rate constant for photocleavage [1]: 0.21 min⁻¹
- k in PBS, relative rate constant for photocleavage [1]: 0.081 min⁻¹
- k in ACN: H2O, fold over photodoxazolidine [1]: (30)
- k in PBS, fold over photodoxazolidine [1]: (31)
- photochemical reaction, fold faster than photodoxazolidine [1]: approximately 30 fold

SMILES: COc1cc(C(C)OC(=O)N2COC3C(C)OC(OC4CC(O)(C(=O)CO)Cc5c(O)c6c(c(O)c54)C(=O)c4c(OC)cccc4C6=O)CC32)c([N+](=O)[O-])cc1OCC(=O)NCCOCCOCCOCCn1cc(CCC(=O)NC2C(O)OC(CO)C(O)C2O)nn1 (centres unmarked) [Glucose-PEG-photodoxazolidine]
- k in ACN: H2O, relative rate constant for photocleavage [1]: 0.036 min⁻¹
- k in PBS, relative rate constant for photocleavage [1]: 0.011 min⁻¹
- k in ACN: H2O, fold over photodoxazolidine [1]: (5.2)
- k in PBS, fold over photodoxazolidine [1]: (4.2)
- photochemical reaction, fold faster than photodoxazolidine [1]: 4-5 fold
- IC50 ([2]; Homo sapiens, MDA-MB-231, light +, 24 h incubation, 15 min UV, read-out: IC50): 750 nM
- IC50 ([2]; Homo sapiens, MDA-MB-231, light −, 24 h incubation, read-out: IC50): 2400 nM
- IC50 ([3]; 10 min, MDA-MB-231, +UV 10 min, near UV 350 nm): 27 ± 2 nM
- IC50 ([3]; MDA-MB-231, prodrug alone, no UV): > 10000 nM

SMILES: COc1cc(C(C)OC(=O)N2COC3C(C)OC(OC4CC(O)(C(=O)CO)Cc5c(O)c6c(c(O)c54)C(=O)c4c(OC)cccc4C6=O)CC32)c([N+](=O)[O-])cc1OCC(=O)NC1C(O)OC(CO)C(O)C1O (centres unmarked) [Glucose-Phtodoxazolidine]
- IC50 ([2]; Homo sapiens, MDA-MB-231): 832 nM
- IC50 ([2]; Homo sapiens, MDA-MB-231, 24 h): 2080 nM

SMILES: COc1cc(C(C)OC(=O)N2CO[C@@H]3[C@H](C)OC(OC4CC(O)(C(=O)CO)Cc5c(O)c6c(c(O)c54)C(=O)c4c(OC)cccc4C6=O)C[C@@H]32)c([N+](=O)[O-])cc1OCC(=O)NCCOCCOCCOCCn1nnc2c1-c1ccccc1CN(C(=O)CCNC(=O)CCN1C(=O)CC(SCCC(=O)N[C@@H](CCCCN)C(=O)N[C@@H](CCCCN)C(=O)N[C@@H](CCCCN)C(=O)N[C@@H](CCCCN)C(=O)N[C@@H](CCCCN)C(=O)N[C@@H](CCCNC(=N)N)C(=O)N[C@@H](Cc3ccccc3)C(=O)N[C@@H](CO)C(=O)N[C@@H](Cc3ccccc3)C(=O)N[C@@H](CCCCN)C(=O)N[C@@H](CCCCN)C(=O)N[C@@H](CO)C(=O)N[C@@H](Cc3ccccc3)C(=O)N[C@@H](CCCCN)C(=O)N[C@@H](CC(C)C)C(=O)N[C@@H](CO)C(=O)NCC(=O)N[C@@H](Cc3ccccc3)C(=O)N[C@@H](CO)C(=O)N[C@@H](Cc3ccccc3)C(=O)N[C@@H](CCCCN)C(=O)N[C@@H](CCCCN)C(=O)N[C@@H](CC(N)=O)C(=O)N[C@@H](CCCCN)C(=O)N[C@@H](CCCCN)C(N)=O)C1=O)c1ccccc1-2 (some centres unmarked) [MARCKS-PEG-Photodoxazolidine] ([Mpa](X1)KKKKKRFSFKKSFKLSGFSFKKNKK-NH2)
- IC50 ([2]; light −, 24 h incubation, read-out: IC50): 1300 nM
